Measurements taken from the supplement of paper PMC11061612.

Tests used:
[1] = compound: CC1=CN2[C@@H](C1)C=NC3=CC(=C(C=C3C2=O)OC)OCCCCCOC4=C(C=C5C(=C4)N=C[C@@H]6CC(=CN6C5=O)C)OC [SG3199]; conditions: max 0.001 µM
Procedure, shortened: (§1)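 Following 24 hours at 37°C and 5% CO2, cancer cell lines in 1536-well plates with 7.5 μl DMEM/F12 or RPMI and 10% FBS were dosed for 72 hours, final DMSO typically being 0.2%. CellTiter-Glo 2.0 luminescence, scaled between blank-well and DMSO-well means, gave the viability readout. Dose responses were fitted to a two-parameter logistic curve with a non-linear mixed effects model, and the single-agent IC50 was derived from this fit.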

[2] = compound: CC(C)n1c(=O)n(C)c2cnc3cc(F)c(-c4ccc(OCCCN5CCCCC5)nc4)cc3c21 [AZD1390]; conditions: max 0.3 µM
Procedure, shortened: as §1

[3] = compound: COc1cccc2c1C(=O)c1c(O)c3c(c(O)c1C2=O)C[C@@](O)(C(=O)CO)C[C@@H]3O[C@H]1C[C@H](N)[C@H](O)[C@H](C)O1 [Doxorubicin]; conditions: max 1 µM
Procedure, shortened: as §1

[4] = compound: Cc1cc2ncnn2cc1Nc1ncc2c(n1)n(C1CCOCC1)c(=O)n2C [AZD7648]; conditions: max 10 µM
Procedure, shortened: as §1

[5] = compound: CC1=C(C(=CC=C1)Cl)NC(=O)C2=CN=C(S2)NC3=CC(=NC(=N3)C)N4CCN(CC4)CCO [Dasatinib]; conditions: max 2 µM
Procedure, shortened: as §1

[6] = compound: O=C(c1cc(Cc2n[nH]c(=O)c3ccccc23)ccc1F)N1CCN(C(=O)C2CC2)CC1 [Olaparib]; conditions: max 10 µM
Procedure, shortened: as §1

[7] = compound: Cc1c2c(nn1C)CSCc1cc(n(C)n1)CSc1cc(c3ccccc3c1)OCCCc1c(C(=O)O)n(C)c3c-2c(Cl)ccc13 [AZD5991]; conditions: max 1 µM
Procedure, shortened: as §1

[8] = compound: CN(C)CCCOc1ccc(-c2ccc3ncc4c(c3c2)n(C2CCOCC2)c(=O)n4C)cn1 [AZD0156]; conditions: max 3 µM
Procedure, shortened: as §1

[9] = compound: C=CCn1c(=O)c2cnc(Nc3ccc(N4CCN(C)CC4)cc3)nc2n1-c1cccc(C(C)(C)O)n1 [AZD1775]; conditions: max 3 µM
Procedure, shortened: as §1

[10] = compound: COc1cc(Nc2ncc3c(n2)-c2ccc(Cl)cc2C(c2c(F)cccc2OC)=NC3)ccc1C(=O)O [Alisertib]; conditions: max 10 µM
Procedure, shortened: as §1

[11] = compound: COc1cc2ncnc(Nc3ccc(F)c(Cl)c3)c2cc1OCCCN1CCOCC1 [Gefitinib]; conditions: max 10 µM
Procedure, shortened: as §1

[12] = compound: C[C@@H](Oc1cc(-c2cnn(C3CCNCC3)c2)cnc1N)c1c(Cl)ccc(F)c1Cl [Crizotinib]; conditions: max 10 µM
Procedure, shortened: as §1

[13] = compound: CCc1c2c(nc3ccc(O)cc13)-c1cc3c(c(=O)n1C2)COC(=O)[C@]3(O)CC [SN-38]; conditions: max 0.3 µM
Procedure, shortened: as §1

[14] = compound: C[C@@H]1COCCN1C2=NC(=NC(=C2)C3(CC3)[S@](=N)(=O)C)C4=C5C=CNC5=NC=C4 [AZD6738]; conditions: max 10 µM
Procedure, shortened: as §1

[15] = compound: CS(=O)(=O)CCNCc1ccc(-c2ccc3ncnc(Nc4ccc(OCc5cccc(F)c5)c(Cl)c4)c3c2)o1 [Lapatinib]; conditions: max 10 µM
Procedure, shortened: as §1

[16] = compound: Cn1cnc2c(F)c(Nc3ccc(Br)cc3Cl)c(C(=O)NOCCO)cc21 [Selumetinib]; conditions: max 10 µM
Procedure, shortened: as §1

[17] = compound: COc1cccc(OCCCN)c1-c1cc(Nc2cnc(C#N)cn2)n[nH]1 [Prexasertib]; conditions: max 1 µM
Procedure, shortened: as §1

[18] = compound: CN(CC[C@H](CSC1=CC=CC=C1)NC2=C(C=C(C=C2)S(=O)(=O)NC(=O)C3=CC=C(C=C3)N4CCC(CC4)[C@H](C5=CC=CC=C5C6=CC=C(C=C6)Cl)O)S(=O)(=O)C(F)(F)F)CCO [AZD4320]; conditions: max 1 µM
Procedure, shortened: as §1

[19] = compound: C[C@@H](c1ccc2nccn2c1)n1nnc2ncc(-c3cnn(C)c3)nc21 [Savolitinib]; conditions: max 1 µM
Procedure, shortened: as §1

[20] = compound: CCN(CCO)CCCOc1ccc2c(Nc3cc(CC(=O)Nc4cccc(F)c4)[nH]n3)ncnc2c1 [AZD2811]; conditions: max 1 µM
Procedure, shortened: as §1

[21] = compound: C1CN(CCC1(C(=O)N[C@@H](CCO)C2=CC=C(C=C2)Cl)N)C3=NC=NC4=C3C=CN4 [Capivasertib]; conditions: max 10 µM
Procedure, shortened: as §1

[22] = compound: CC1(C)CCC(CN2CCN(c3ccc(C(=O)NS(=O)(=O)c4ccc(NCC5CCOCC5)c([N+](=O)[O-])c4)c(Oc4cnc5[nH]ccc5c4)c3)CC2)=C(c2ccc(Cl)cc2)C1 [Venetoclax]; conditions: max 1 µM
Procedure, shortened: as §1

[23] = compound: CC(=O)c1c(C)c2cnc(Nc3ccc(N4CCNCC4)cn3)nc2n(C2CCCC2)c1=O [Palbociclib]; conditions: max 10 µM
Procedure, shortened: as §1

[24] = compound: Cc1nc(-c2cn3c(n2)-c2ccc(-c4cnn(C(C)(C)C(N)=O)c4)cc2OCC3)n(C(C)C)n1 [Taselisib]; conditions: max 10 µM
Procedure, shortened: as §1

[25] = compound: CC(=O)Nc1cccc(-n2c(=O)n(C3CC3)c(=O)c3c(Nc4ccc(I)cc4F)n(C)c(=O)c(C)c32)c1 [Trametinib]; conditions: max 1 µM
Procedure, shortened: as §1

[26] = compound: COc1nnc2ccc(N3CCC(c4ccc(OCCN5CCN(C)C(=O)[C@H]5C)cc4)CC3)nn12 [AZD5153]; conditions: max 1 µM
Procedure, shortened: as §1

[27] = compound: C[C@@H](Nc1cc(F)cc(F)c1)c1cc(C(=O)N(C)C)cc2c(=O)cc(N3CCOCC3)oc12 [AZD8186]; conditions: max 3 µM
Procedure, shortened: as §1

KM12 (Colorectal Carcinoma)
IC50, cell viability 72 h [1]: > 1 nM
IC50, cell viability 72 h [2]: > 300 nM
IC50, cell viability 72 h [3]: 357 nM
IC50, cell viability 72 h [4]: > 10000 nM
IC50, cell viability 72 h [5]: > 2000 nM
IC50, cell viability 72 h [6]: > 10000 nM
IC50, cell viability 72 h [7]: > 1000 nM
IC50, cell viability 72 h [8]: > 3000 nM
IC50, cell viability 72 h [9]: 454 nM
IC50, cell viability 72 h [10]: 1110 nM
IC50, cell viability 72 h [11]: > 10000 nM
IC50, cell viability 72 h [12]: 271 nM
IC50, cell viability 72 h [13]: 90.8 nM
IC50, cell viability 72 h [14]: 5540 nM
IC50, cell viability 72 h [15]: > 10000 nM
IC50, cell viability 72 h [16]: 1300 nM
IC50, cell viability 72 h [17]: 66.6 nM
IC50, cell viability 72 h [18]: > 1000 nM
IC50, cell viability 72 h [19]: > 1000 nM
IC50, cell viability 72 h [20]: > 1000 nM
IC50, cell viability 72 h [21]: 2280 nM
IC50, cell viability 72 h [22]: > 1000 nM
IC50, cell viability 72 h [23]: 1170 nM
IC50, cell viability 72 h [24]: 7180 nM
IC50, cell viability 72 h [25]: 35.6 nM
IC50, cell viability 72 h [26]: 287 nM
IC50, cell viability 72 h [27]: > 3000 nM

KYSE-180 (Esophageal Squamous Cell Carcinoma)
IC50, cell viability 72 h [1]: > 1 nM
IC50, cell viability 72 h [2]: > 300 nM
IC50, cell viability 72 h [3]: > 1000 nM
IC50, cell viability 72 h [4]: > 10000 nM
IC50, cell viability 72 h [5]: 1730 nM
IC50, cell viability 72 h [6]: > 10000 nM
IC50, cell viability 72 h [7]: 642 nM
IC50, cell viability 72 h [8]: > 3000 nM
IC50, cell viability 72 h [9]: 440 nM
IC50, cell viability 72 h [10]: > 10000 nM
IC50, cell viability 72 h [11]: > 10000 nM
IC50, cell viability 72 h [12]: > 10000 nM
IC50, cell viability 72 h [13]: > 300 nM
IC50, cell viability 72 h [14]: 5360 nM
IC50, cell viability 72 h [15]: > 10000 nM
IC50, cell viability 72 h [16]: > 10000 nM
IC50, cell viability 72 h [17]: 22.3 nM
IC50, cell viability 72 h [18]: > 1000 nM
IC50, cell viability 72 h [19]: > 1000 nM
IC50, cell viability 72 h [20]: > 1000 nM
IC50, cell viability 72 h [21]: > 10000 nM
IC50, cell viability 72 h [22]: > 1000 nM
IC50, cell viability 72 h [23]: > 10000 nM
IC50, cell viability 72 h [24]: 4520 nM
IC50, cell viability 72 h [25]: > 1000 nM
IC50, cell viability 72 h [26]: > 1000 nM
IC50, cell viability 72 h [27]: > 3000 nM

LN-18 (Glioblastoma)
IC50, cell viability 72 h [1]: > 1 nM
IC50, cell viability 72 h [2]: > 300 nM
IC50, cell viability 72 h [3]: > 1000 nM
IC50, cell viability 72 h [4]: > 10000 nM
IC50, cell viability 72 h [5]: > 2000 nM
IC50, cell viability 72 h [6]: > 10000 nM
IC50, cell viability 72 h [7]: > 1000 nM
IC50, cell viability 72 h [8]: > 3000 nM
IC50, cell viability 72 h [9]: > 3000 nM
IC50, cell viability 72 h [10]: 1400 nM
IC50, cell viability 72 h [11]: > 10000 nM
IC50, cell viability 72 h [12]: > 10000 nM
IC50, cell viability 72 h [13]: 138 nM
IC50, cell viability 72 h [14]: 8830 nM
IC50, cell viability 72 h [15]: 9520 nM
IC50, cell viability 72 h [16]: > 10000 nM
IC50, cell viability 72 h [17]: 209 nM
IC50, cell viability 72 h [18]: > 1000 nM
IC50, cell viability 72 h [19]: > 1000 nM
IC50, cell viability 72 h [20]: > 1000 nM
IC50, cell viability 72 h [21]: > 10000 nM
IC50, cell viability 72 h [22]: > 1000 nM
IC50, cell viability 72 h [23]: > 10000 nM
IC50, cell viability 72 h [24]: 5680 nM
IC50, cell viability 72 h [25]: > 1000 nM
IC50, cell viability 72 h [26]: 342 nM
IC50, cell viability 72 h [27]: 2530 nM

MEL-JUSO (Melanoma)
IC50, cell viability 72 h [1]: > 1 nM
IC50, cell viability 72 h [2]: > 300 nM
IC50, cell viability 72 h [3]: > 1000 nM
IC50, cell viability 72 h [4]: > 10000 nM
IC50, cell viability 72 h [5]: > 2000 nM
IC50, cell viability 72 h [6]: > 10000 nM
IC50, cell viability 72 h [7]: > 1000 nM
IC50, cell viability 72 h [8]: > 3000 nM
IC50, cell viability 72 h [9]: > 3000 nM
IC50, cell viability 72 h [10]: > 10000 nM
IC50, cell viability 72 h [11]: > 10000 nM
IC50, cell viability 72 h [12]: > 10000 nM
IC50, cell viability 72 h [13]: > 300 nM
IC50, cell viability 72 h [14]: > 10000 nM
IC50, cell viability 72 h [15]: > 10000 nM
IC50, cell viability 72 h [16]: > 10000 nM
IC50, cell viability 72 h [17]: 125 nM
IC50, cell viability 72 h [18]: > 1000 nM
IC50, cell viability 72 h [19]: > 1000 nM
IC50, cell viability 72 h [20]: > 1000 nM
IC50, cell viability 72 h [21]: > 10000 nM
IC50, cell viability 72 h [22]: > 1000 nM
IC50, cell viability 72 h [23]: > 10000 nM
IC50, cell viability 72 h [24]: > 10000 nM
IC50, cell viability 72 h [25]: 430 nM
IC50, cell viability 72 h [26]: > 1000 nM
IC50, cell viability 72 h [27]: > 3000 nM
